Measurements: the supplement of paper PMC11451515

Tested on: P12-Ichikawa
Assay: cell viability relative to DMSO control; higher = less cytotoxic
Conditions: 48 h
Procedure, shortened: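 NOMO1 or SEM cells were plated at 500 cells/well and P12-Ichikawa cells at 1000 cells/well in 1536-well plates (5 μl), after each leukemia line had been adapted for at least four passages in each medium. Pin dosing delivered library compounds in DMSO at 11 threefold concentrations, 47 μM to 0.79 nM. CellTiter-Glo One luminescence was read after 48 h at 37°C. Viability is reported as a per-plate percentage of DMSO wells, with cell-free wells as background.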

[1] = HPLM + 10% dialyzed FBS, 0.000781 µM
[2] = HPLM + 10% dialyzed FBS, 0.00234 µM
[3] = HPLM + 10% dialyzed FBS, 0.00702 µM
[4] = HPLM + 10% dialyzed FBS, 0.0211 µM
[5] = HPLM + 10% dialyzed FBS, 0.0632 µM
[6] = HPLM + 10% dialyzed FBS, 0.19 µM
[7] = HPLM + 10% dialyzed FBS, 0.569 µM
[8] = HPLM + 10% dialyzed FBS, 1.71 µM
[9] = HPLM + 10% dialyzed FBS, 5.12 µM
[10] = HPLM + 10% dialyzed FBS, 15.4 µM
[11] = HPLM + 10% dialyzed FBS, 46.1 µM
[12] = RPMI 5 mM glucose + 10% FBS, 0.000781 µM
[13] = RPMI 5 mM glucose + 10% FBS, 0.00234 µM
[14] = RPMI 5 mM glucose + 10% FBS, 0.00702 µM
[15] = RPMI 5 mM glucose + 10% FBS, 0.0211 µM
[16] = RPMI 5 mM glucose + 10% FBS, 0.0632 µM
[17] = RPMI 5 mM glucose + 10% FBS, 0.19 µM
[18] = RPMI 5 mM glucose + 10% FBS, 0.569 µM
[19] = RPMI 5 mM glucose + 10% FBS, 1.71 µM
[20] = RPMI 5 mM glucose + 10% FBS, 5.12 µM
[21] = RPMI 5 mM glucose + 10% FBS, 15.4 µM
[22] = RPMI 5 mM glucose + 10% FBS, 46.1 µM
[23] = RPMI 5 mM glucose + 10% dialyzed FBS, 0.000781 µM
[24] = RPMI 5 mM glucose + 10% dialyzed FBS, 0.00234 µM
[25] = RPMI 5 mM glucose + 10% dialyzed FBS, 0.00702 µM
[26] = RPMI 5 mM glucose + 10% dialyzed FBS, 0.0211 µM
[27] = RPMI 5 mM glucose + 10% dialyzed FBS, 0.0632 µM
[28] = RPMI 5 mM glucose + 10% dialyzed FBS, 0.19 µM
[29] = RPMI 5 mM glucose + 10% dialyzed FBS, 0.569 µM
[30] = RPMI 5 mM glucose + 10% dialyzed FBS, 1.71 µM
[31] = RPMI 5 mM glucose + 10% dialyzed FBS, 5.12 µM
[32] = RPMI 5 mM glucose + 10% dialyzed FBS, 15.4 µM
[33] = RPMI 5 mM glucose + 10% dialyzed FBS, 46.1 µM

Compound	cell viability [1]	cell viability [2]	cell viability [3]	cell viability [4]	cell viability [5]	cell viability [6]	cell viability [7]	cell viability [8]	cell viability [9]	cell viability [10]	cell viability [11]	cell viability [12]	cell viability [13]	cell viability [14]	cell viability [15]	cell viability [16]	cell viability [17]	cell viability [18]	cell viability [19]	cell viability [20]	cell viability [21]	cell viability [22]	cell viability [23]	cell viability [24]	cell viability [25]	cell viability [26]	cell viability [27]	cell viability [28]	cell viability [29]	cell viability [30]	cell viability [31]	cell viability [32]	cell viability [33]
CCCCCCCCc1ccc(CCC(N)(CO)CO)cc1	113%	111%	113%	104%	108%	112%	101%	107%	76.1%	84.1%	7.48%	118%	114%	113%	114%	119%	115%	104%	101%	80.8%	60%	3.8%	105%	110%	112%	109%	103%	111%	90.2%	114%	87.2%	68%	3.18%
CO[C@@H]1C(N(C)C(=O)c2ccccc2)C[C@H]2O[C@]1(C)n1c3ccccc3c3c4c(c5c6ccccc6n2c5c31)C(=O)NC4=O (some centres undefined)	84.9%	88.1%	93.3%	92.3%	91%	97.7%	99%	91.2%	90%	46%	25.9%	78.8%	87.8%	88.7%	90.9%	97.4%	87%	84.8%	90.2%	73.4%	27.1%	32.5%	78.9%	84.4%	91%	91.9%	82.9%	90.1%	83%	84.8%	87.8%	23.2%	32.7%
CCNC(=O)[C@H]1O[C@@H](n2cnc3c(N)nc(NCCc4ccc(CCC(=O)O)cc4)nc32)[C@H](O)[C@@H]1O	108%	97.9%	101%	106%	109%	101%	106%	103%	104%	96.8%	96.1%	105%	102%	96.2%	102%	102%	97.5%	99.9%	99.6%	96.4%	93.3%	92.2%	106%	98.9%	107%	99.8%	105%	97.2%	108%	91.3%	101%	95.9%	93.3%
COc1cc2ncnc(Nc3cccc(Br)c3)c2cc1OC	88.8%	101%	103%	100%	97.6%	105%	110%	98.4%	102%	111%	106%	87.9%	97.6%	105%	103%	108%	107%	117%	99.8%	114%	112%	106%	95.9%	91.5%	106%	104%	114%	112%	113%	109%	109%	112%	105%
N\C1=N\C2=C(N=C[N]2COC(CO)CO)C(=O)N1	107%	108%	109%	113%	115%	115%	119%	120%	119%	116%	5.18%	104%	102%	112%	119%	121%	110%	124%	124%	117%	107%	3.39%	101%	98.3%	108%	118%	106%	116%	113%	109%	112%	109%	4.18%
Oc1cc(O)cc(/C=C/c2ccc(O)c(O)c2)c1	103%	103%	100%	106%	103%	109%	106%	111%	98%	85.2%	28.3%	97.5%	92.7%	101%	104%	102%	97.8%	105%	97%	85%	91.1%	45.6%	87.6%	88.3%	101%	104%	102%	104%	93%	101%	93.6%	84.4%	40.7%
CCNc1cc(NC2CCC(O)CC2)nc(Nc2ccc3c(ccn3Cc3ccccc3)c2)n1 (centres undefined)	112%	117%	117%	126%	127%	128%	126%	128%	124%	120%	109%	–	–	–	–	–	–	–	–	–	–	–	–	–	–	–	–	–	–	–	–	–	–
